Experimental data from patent US20240368181A1, “QUINOXALINE DERIVATIVES AND USES THEREOF” (Black Diamond Therapeutics, Inc., priority 2021, published 2024).

Assays:
Format in all cases: cell-based
[1] = system: SNU-16 (FGFR2-amplification) cells; assay: cell proliferation assay (CellTiterGlo), SNU-16 cells; settings: Homo sapiens, 72 hours
How it was run: (§1)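 Cells were suspended, dispensed into plates and incubated with vehicle (DMSO) or test compound at varying concentrations. Growth inhibition was measured by luminescent quantification of intracellular ATP (CellTiterGlo). IC50 values came from growth normalized to vehicle-treated cells taken as viable.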

[2] = system: UM-UC-14 (FGFR3-S249C) cells; assay: cell proliferation assay (CellTiterGlo), UM-UC-14 cells
How it was run: as §1

[3] = system: DMS-114 (FGFR1 overexpression) cells; assay: cell proliferation assay (CellTiterGlo), DMS-114 cells; settings: Homo sapiens
How it was run: as §1

[4] = system: RT-112 (FGFR3-Tacc3 fusion) cells; assay: cell proliferation assay (CellTiterGlo), RT-112 cells; settings: Homo sapiens, RT-112, RT112 cells, 72 hours
How it was run: as §1

SMILES | IC50 [1] | IC50 ([2]; UMUC14, 72 h) | IC50 ([3]; DMS-114, 72 h) | IC50 [4] | IC50 ([2]; UMUC14, 72 hours) | IC50 ([3]; 72 hours)
Cc1nc2ccc(Oc3ccc4ncc(-c5cnn(CC6CC(=O)C6)c5)nc4c3Cl)cc2[nH]1 [Compound 308] | 20 to 100 nM | 20 to 100 nM | ≥ 400 nM | 20 to 100 nM | – | –
Cc1nc2ccc(Oc3ccc4ncc(-c5cnn(C6CC(N7CC(O)C7)C6)c5)nc4c3Cl)cc2[nH]1 (stereo not drawn) [Compound 309] | 20 to 100 nM | 20 to 100 nM | 100 to 400 nM | 20 to 100 nM | – | –
Cc1nc2ccc(Oc3ccc4ncc(-c5cnn(CC6CN(CC#N)C6)c5)nc4c3Cl)cc2[nH]1 [Compound 310] | 20 to 100 nM | 20 to 100 nM | ≥ 400 nM | 20 to 100 nM | – | –
Cc1nc2ccc(Oc3ccc4ncc(-c5cnn(C[C@H]6CCS(=O)(=O)C6)c5)nc4c3Cl)cc2[nH]1 [Compound 311] | < 20 nM | 20 to 100 nM | 100 to 400 nM | < 20 nM | – | –
Clc1c(Oc2ccn3cncc3c2)ccc2ncc(-c3cnn(CC4CCN(C5COC5)CC4)c3)nc12 [Compound 312] | ≥ 400 nM | ≥ 400 nM | ≥ 400 nM | ≥ 400 nM | – | –
CNC(=O)N1CC2CC1CC2Cn1cc(-c2cnc3ccc(Oc4ccc5nc(C)[nH]c5c4)c(Cl)c3n2)cn1 (stereo not drawn) [Compound 313] | 20 to 100 nM | 20 to 100 nM | ≥ 400 nM | 20 to 100 nM | – | –
Cc1nc2ccc(Oc3ccc4ncc(-c5cnn(CC6CN(CC(=O)N7CC(O)C7)C6)c5)nc4c3Cl)cc2[nH]1 [Compound 314] | 20 to 100 nM | 100 to 400 nM | 100 to 400 nM | 20 to 100 nM | – | –
CNC(=O)CN1CC(Cn2cc(-c3cnc4ccc(Oc5ccc6nc(C)[nH]c6c5)c(Cl)c4n3)cn2)C1 [Compound 315] | 20 to 100 nM | 20 to 100 nM | ≥ 400 nM | 20 to 100 nM | – | –
COCCN1CCC(n2cc(-c3cnc4ccc(Oc5ccc6nc(C)[nH]c6c5)c(Cl)c4n3)cn2)CC1 [Compound 316] | 20 to 100 nM | 20 to 100 nM | ≥ 400 nM | 20 to 100 nM | – | –
Cc1nc2ccc(Oc3ccc4ncc(-c5cnn(CC(=O)N6CC(O)C6)c5)nc4c3Cl)cc2[nH]1 [Compound 317] | 20 to 100 nM | ≥ 400 nM | ≥ 400 nM | 100 to 400 nM | – | –
Cc1nc2ccc(Oc3ccc4ncc(-c5cnn(C6(CCO)CCNCC6)c5)nc4c3Cl)cc2[nH]1 [Compound 318] | ≥ 400 nM | ≥ 400 nM | ≥ 400 nM | ≥ 400 nM | – | –
Cc1nc2ccc(Oc3ccc4ncc(-c5cnn(CC(=O)N6CCC6)c5)nc4c3Cl)cc2[nH]1 [Compound 319] | 20 to 100 nM | 20 to 100 nM | ≥ 400 nM | 20 to 100 nM | – | –
Cc1nc2ccc(Oc3ccc4ncc(-c5cnn(CC6CN(CC(=O)N7CCC7)C6)c5)nc4c3Cl)cc2[nH]1 [Compound 320] | 20 to 100 nM | 100 to 400 nM | ≥ 400 nM | 20 to 100 nM | – | –
CNC(=O)N1CCC(n2cc(-c3cnc4ccc(Oc5ccc6nc(C)[nH]c6c5)c(Cl)c4n3)cn2)CC1 [Compound 321] | 20 to 100 nM | 20 to 100 nM | ≥ 400 nM | 20 to 100 nM | – | –
CNC(=O)CN1CCC(n2cc(-c3cnc4ccc(Oc5ccc6nc(C)[nH]c6c5)c(Cl)c4n3)cn2)CC1 [Compound 322] | 20 to 100 nM | 20 to 100 nM | ≥ 400 nM | < 20 nM | – | –
Cc1nc2ccc(Oc3ccc4ncc(-c5cnn([C@H]6C[C@@H](N7CCOCC7)C6)c5)nc4c3Cl)cc2[nH]1 [Compound 323] | < 20 nM | 20 to 100 nM | ≥ 400 nM | 20 to 100 nM | – | –
Cc1nc2ccc(Oc3ccc4ncc(-c5cnn([C@H]6C[C@H](N7CCOCC7)C6)c5)nc4c3Cl)cc2[nH]1 [Compound 324] | 20 to 100 nM | 20 to 100 nM | ≥ 400 nM | 20 to 100 nM | – | –
Cc1nc2ccc(Oc3ccc4ncc(-c5cnn(CC6CC(O)C6)c5)nc4c3Cl)cc2[nH]1 (stereo not drawn) [Compound 325] | < 20 nM | 20 to 100 nM | ≥ 400 nM | < 20 nM | – | –
Cc1nc2ccc(Oc3ccc4ncc(-c5cnn(CC(N)=O)c5)nc4c3Cl)cc2[nH]1 [Compound 326] | 20 to 100 nM | 100 to 400 nM | ≥ 400 nM | 100 to 400 nM | – | –
Cc1nc2ccc(Oc3ccc4ncc(-c5cnn(CC6CCC(=O)CC6)c5)nc4c3Cl)cc2[nH]1 [Compound 327] | < 20 nM | < 20 nM | ≥ 400 nM | < 20 nM | – | –
Cc1nc2ccc(Oc3ccc4ncc(-c5cnn(CC6CC7CC6CN7C(N)=O)c5)nc4c3Cl)cc2[nH]1 (stereo not drawn) [Compound 328] | 20 to 100 nM | 20 to 100 nM | ≥ 400 nM | 20 to 100 nM | – | –
Cc1nc2ccc(Oc3ccc4ncc(-c5cnn(CC6CC7CC6CN7CC(N)=O)c5)nc4c3Cl)cc2[nH]1 (stereo not drawn) [Compound 329] | < 20 nM | < 20 nM | 100 to 400 nM | < 20 nM | – | –
Cc1nc2ccc(Oc3ccc4ncc(-c5cnn(C6CCN(CC(N)=O)CC6)c5)nc4c3Cl)cc2[nH]1 [Compound 330] | < 20 nM | 20 to 100 nM | ≥ 400 nM | < 20 nM | – | –

SMILES | IC50 [1] | IC50 ([2]; UMUC14, 72 h) | IC50 ([3]; DMS-114, 72 h) | IC50 [4] | IC50 ([2]; UMUC14, 72 hours) | IC50 ([3]; 72 hours)
Cc1nc2ccc(Oc3ccc4ncc(-c5cnn(C6CC7CC6CN7C6COC6)c5)nc4c3Cl)cc2[nH]1 (stereo not drawn) [Compound 331] | < 20 nM | 20 to 100 nM | ≥ 400 nM | < 20 nM | – | –
Cc1nc2cc(Oc3ccc4ncc(-c5cnn(CC(=O)N6CCC(F)(F)CC6)c5)nc4c3Cl)ccc2[nH]1 [Compound 332] | 20 to 100 nM | 20 to 100 nM | ≥ 400 nM | 20 to 100 nM | – | –
Cc1nc2ccc(Oc3ccc4ncc(-c5cnn(C6CCN(C(C)C)CC6)c5)nc4c3Cl)cc2[nH]1 [Compound 333] | 20 to 100 nM | 20 to 100 nM | ≥ 400 nM | 20 to 100 nM | – | –
Cc1nc2ccc(Oc3c(C)cc4ncc(-c5cnn(CC6CCN(C)CC6)c5)nc4c3Cl)cc2[nH]1 [Compound 334] | ≥ 400 nM | ≥ 400 nM | ≥ 400 nM | ≥ 400 nM | – | –
CO[C@H]1CC[C@H](Cn2cc(-c3cnc4ccc(Oc5ccc6nc(C)[nH]c6c5)c(Cl)c4n3)cn2)CC1 [Compound 335] | 20 to 100 nM | 20 to 100 nM | ≥ 400 nM | 20 to 100 nM | – | –
CO[C@H]1CC[C@@H](Cn2cc(-c3cnc4ccc(Oc5ccc6nc(C)[nH]c6c5)c(Cl)c4n3)cn2)CC1 [Compound 336] | 20 to 100 nM | 20 to 100 nM | ≥ 400 nM | 20 to 100 nM | – | –
Cc1nc2ccc(Oc3ccc4ncc(-c5cnn(C[C@]67C[C@H](CO6)C7)c5)nc4c3Cl)cc2[nH]1 [Compound 337] | 20 to 100 nM | 20 to 100 nM | ≥ 400 nM | 20 to 100 nM | – | –
Cc1nc2ccc(Oc3ccc4ncc(-c5cnn(CC6CCC(N(C)C)CC6)c5)nc4c3Cl)cc2[nH]1 (stereo not drawn) [Compound 338] | 20 to 100 nM | 20 to 100 nM | 100 to 400 nM | 20 to 100 nM | – | –
Cc1nc2ccc(Oc3ccc4ncc(-c5cnn(CC6CCC(O)CC6)c5)nc4c3Cl)cc2[nH]1 (stereo not drawn) [Compound 339] | < 20 nM | < 20 nM | 100 to 400 nM | < 20 nM | – | –
Cc1nc2ccc(Oc3ccc4ncc(-c5cnn(C6CCN(C7COC7)CC6)c5)nc4c3Cl)cc2[nH]1 [Compound 340] | < 20 nM | 20 to 100 nM | 100 to 400 nM | < 20 nM | – | –
Clc1c(Oc2ccn3cncc3c2)ccc2ncc(-c3cnn(CC4CCNCC4)c3)nc12 [Compound 341] | ≥ 400 nM | ≥ 400 nM | ≥ 400 nM | ≥ 400 nM | – | –
Cc1nc2ccc(Oc3ccc4ncc(-c5cnn(C6CC7CC6CN7C(C)C)c5)nc4c3Cl)cc2[nH]1 (stereo not drawn) [Compound 342] | 20 to 100 nM | 20 to 100 nM | ≥ 400 nM | 20 to 100 nM | – | –
Cc1nc2ccc(Oc3ccc4ncc(-c5cnn(CC67COC(C6)C7)c5)nc4c3Cl)cc2[nH]1 [Compound 343] | < 20 nM | 20 to 100 nM | ≥ 400 nM | < 20 nM | – | –
Cc1nc2ccc(Oc3ccc4ncc(-c5cnn(CC6CN6)c5)nc4c3Cl)cc2[nH]1 (stereo not drawn) [Compound 344] | 100 to 400 nM | – | – | 100 to 400 nM | 100 to 400 nM | ≥ 400 nM
Cc1cc2cc(Oc3ccc4ncc(-c5cnn(CC6CCN(C)CC6)c5)nc4c3Cl)ccn2n1 [Compound 345] | ≥ 400 nM | ≥ 400 nM | ≥ 400 nM | ≥ 400 nM | – | –
Cc1nc2ccc(Oc3ccc4ncc(-c5cnn(C6CC7(C6)OCCO7)c5)nc4c3Cl)cc2[nH]1 [Compound 346] | 20 to 100 nM | 20 to 100 nM | ≥ 400 nM | 20 to 100 nM | – | –
C=CCn1cc(-c2cnc3ccc(Oc4ccc5nc(C)[nH]c5c4)c(Cl)c3n2)cn1 [Compound 347] | 20 to 100 nM | 100 to 400 nM | ≥ 400 nM | 20 to 100 nM | – | –
Cc1nc2ccc(Oc3ccc4ncc(-c5cnn(CC(=O)NCCO)c5)nc4c3Cl)cc2[nH]1 [Compound 348] | ≥ 400 nM | ≥ 400 nM | ≥ 400 nM | 100 to 400 nM | – | –
Cc1nc2cc(Oc3ccc4ncc(-c5cnn(CC6(O)CCNCC6)c5)nc4c3Cl)ccc2[nH]1 [Compound 349] | ≥ 400 nM | ≥ 400 nM | ≥ 400 nM | ≥ 400 nM | – | –
Cc1nc2ccc(Oc3ccc4ncc(-c5cnn(CCNCCO)c5)nc4c3Cl)cc2[nH]1 [Compound 350] | 100 to 400 nM | 100 to 400 nM | ≥ 400 nM | 20 to 100 nM | – | –
Cc1nc2ccc(Oc3ccc4ncc(-c5cnn(C6CC7CC6CN7C)c5)nc4c3Cl)cc2[nH]1 (stereo not drawn) [Compound 351] | 20 to 100 nM | 20 to 100 nM | 100 to 400 nM | 20 to 100 nM | – | –
Cc1nc2ccc(Oc3ccc4ncc(-c5cnn(CC6(C)COC6)c5)nc4c3Cl)cc2[nH]1 [Compound 352] | ≥ 400 nM | ≥ 400 nM | ≥ 400 nM | ≥ 400 nM | – | –
